Read-outs that look alike come from different tables or passages of the source.
Legend:
DCAF1(WDR) + BTK = molecular target: T1, DCAF1(WDR) + BTK (Homo sapiens, UniProt Q06187+Q9Y4B6, E1398S); test: SPR ternary binding assay, immobilized DCAF1(WDR), BTK (389-659) in buffer; conditions: Fig. 6b
T1 construct: BTK (389-659) or BRD9; His6 (C); His (PreScission site) (N); made in house; host or cells: Sf9 insect cells (both chains)
Source text: Supplementary figure 8. SPR data of binary and ternary DCAF1-BTK PROTACs
without additional BTK as analytes. […] In
the middle panel the steady state fit responses are blotted against the PROTAC concentrations The
Source data are provided as a Source Data file

BTK kinase domain = molecular target: T2, BTK kinase domain (Homo sapiens, UniProt Q06187); test: BTK EPK assay (enzymatic inhibition); type: biochemical
T2 construct: BTK kinase domain was mixed in assay buffer
Description: BTK kinase domain was mixed in assay buffer containing 50 mM HEPES pH 7.5, 0.02% Tween20, 0.02 % bovine serum albumin, 1 mM DTT, 0.01 mM Na3VO4, 10 mM b-Glycerolphosphate, 18 mM MgCl2, 1 mM MnCl2 to a 2× concentration of 8 nM. This solution was added to pre-dispensed compound dilution series in black, 384 well -low dead volume plates (Greiner) and the reaction was initiated by the addition of ATP and a BTK consensus peptide (Sequence: 5-Fluo-Ahx-[…]-Nle-P-Nle-NAND-NH2) to a final assay concentrations of 0.047 mM and 0.002 mM, respectively in assay buffer. The reaction was stopped after 60 min at 32 °C by addition of the same volume of spot solution containing 100 mM HEPES pH 7.5, 5% DMSO, 10 mM EDTA, 0.015% Brij 35. Stopped reactions were analyzed on a Caliper LC3000, which was treated with the commercially available coating reagents CR−3 and CR-8 as instructed by the manufacturer. The relative intensities of phosphorylated peptide were calculated. Data was normalized to control wells containing 100 mM EDTA solution instead of the 2× kinase solutions (0%) and DMSO-only control wells (100%). Normalized data was fitted using a sigmoidal fit.

DCAF1(WDR) = molecular target: T3, DCAF1(WDR) (Homo sapiens, UniProt Q9Y4B6, E1398S); test: DCAF1 TR-FRET competition assay, standard binary format; type: binding
T3 construct: His6 (C); made in house; host or cells: Sf9 insect cells (baculovirus), co-expressed with BirA
Description: Competition assay conditions consist of 20 µL total volume in white 384-well plates (Greiner), in 30 mM phosphate buffer pH 7.4 containing 140 mM NaCl, 0.01% Tween20, 1 mM TCEP and 1% final DMSO. Tested compounds at 14 different concentrations were pre-incubated at 22 °C for 30 min with a large excess of 10 µM human BTK (G389-S659) or 10 µM human BRD9-BD(130-250) in the cooperative assay or with buffer in standard binary assay. […] Samples were then incubated at 22 °C for 30 min before reading using a Tecan infinite M-1000 or PheraStar FSX (excitation 340 nm, emission 490 and 520 nm). DCAF1 protein was omitted in the negative control. IC50 fitting was carried out using an in-house developed software (Novartis Helios software application, unpublished, a publicly available alternative would be e.g., Graphpad Prism) using the methods described by Fomenko et al.[93] (regression algorithms for nonlinear dose-response curve fitting). Following normalization of activity values for the wells to % inhibition (% inhibition = [(high control-sample)/(high control-low control)] × 100). Data analysis could also be carried out using GraphPad Prism without prior normalization. The reported IC50 values are the average of at least two independent experiments.

[1] = ± SD (n), read-out: IC50 DCAF1 TR-FRET

T3 sequence (Q9Y4B6 1073-1399 E1398S): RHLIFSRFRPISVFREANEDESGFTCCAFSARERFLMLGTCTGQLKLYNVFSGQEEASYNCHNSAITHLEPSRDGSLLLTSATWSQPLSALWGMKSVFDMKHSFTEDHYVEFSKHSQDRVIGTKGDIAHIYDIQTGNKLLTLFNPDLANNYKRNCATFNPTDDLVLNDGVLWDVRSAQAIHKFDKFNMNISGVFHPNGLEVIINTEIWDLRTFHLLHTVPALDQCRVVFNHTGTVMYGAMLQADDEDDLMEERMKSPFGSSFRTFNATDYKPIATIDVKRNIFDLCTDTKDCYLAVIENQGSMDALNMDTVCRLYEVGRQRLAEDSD
T2 sequence (Q06187 402-655 limits assumed): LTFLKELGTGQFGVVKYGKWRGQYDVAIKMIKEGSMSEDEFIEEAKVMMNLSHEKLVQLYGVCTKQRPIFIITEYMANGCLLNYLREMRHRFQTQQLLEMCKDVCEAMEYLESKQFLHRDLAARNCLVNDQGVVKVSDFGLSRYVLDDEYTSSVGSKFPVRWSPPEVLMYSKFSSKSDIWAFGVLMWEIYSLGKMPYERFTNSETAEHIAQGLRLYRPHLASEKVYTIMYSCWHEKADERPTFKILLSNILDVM
T1 sequence (Q9Y4B6 1073-1399 E1398S): as the sequence (Q9Y4B6 1073-1399 E1398S) above
T1 sequence (Q06187 389-659): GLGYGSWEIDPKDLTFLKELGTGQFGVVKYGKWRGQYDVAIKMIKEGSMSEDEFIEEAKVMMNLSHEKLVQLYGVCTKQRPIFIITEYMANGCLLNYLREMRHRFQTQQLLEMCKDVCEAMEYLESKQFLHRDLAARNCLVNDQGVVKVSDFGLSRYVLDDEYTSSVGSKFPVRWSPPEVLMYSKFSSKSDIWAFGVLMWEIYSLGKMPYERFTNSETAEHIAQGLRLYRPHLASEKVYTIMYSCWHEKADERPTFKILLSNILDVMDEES

SMILES | Kd (DCAF1(WDR) + BTK) [nM] | IC50 (BTK kinase domain) [nM] | IC50 (DCAF1(WDR); [1]) [nM] | IC50 (DCAF1(WDR); binary, compound alone, spread in brackets, read-out: TR-FRET Q. IC50) [nM]
Cc1c(NC(=O)N2CC(O)(CC(C)(C)C)C2)cc(F)cc1-c1ncnc2[nH]c(-c3cnn(CC(=O)N4CCC5(CC4)CN(CCNC(=O)CCCC(=O)N4CCN(c6ccc7c(NCCN)nc(C8(c9ccc(Cl)cc9)CCCCC8)nc7c6)CC4)CCO5)c3)cc12 [DBt-10] | 33 | 44 | 134 ± 68 | –
Cc1c(NC(=O)c2ccc(C(C)(C)O)cc2F)cc(F)cc1-c1ncnc2[nH]c(-c3ccc(CNCCOCCOCCOCCOCCOCCOCCOCCOCCOCCOCCOCCOCCC(=O)N4CCN(c5ccc6c(NCCN)nc(C7(c8ccc(Cl)cc8)CCCCC7)nc6c5)CC4)cc3)cc12 [DBt-5] | 480 | 62 | 23 ± 5 | –
COc1cc(-c2cn(C)c(=O)c3cnccc23)c(OC)cc1CN1CCC(OCCCCCC(=O)N2CCN(c3ccc4c(NCCN)nc(C5(c6ccc(Cl)cc6)CCCCC5)nc4c3)CC2)CC1 [DBr-1] | – | – | – | 38
